In publication PMC12680549, “Impact of Seasonal Variation on Antioxidant, Enzyme Inhibitory, and Anti‐Inflammatory Potentials of Cistus creticus Leaf Extracts” (ChemistryOpen, 2025):

Tested on: T1, urease
T1 construct: gene urea amidohydrolase; the jack bean enzyme is only a guess from the usual assay; Helicobacter pylori is named only as background
Assay: phenol-hypochlorite assay, […] nm
Type: biochemical, Canavalia ensiformis
Details: 17 mM urea, 30 °C, 50 min; enzyme source not stated

Q: For `NC(N)=S` [Thiourea], which “Antiurease / IC50 μg mL^-1” value is on record?
A: Its value is 11.57 ± 0.68 µg/mL.
